# Measured values as given in patent publication US10508086B2 (CANCER RESEARCH TECHNOLOGY LIMITED, priority 2014, dated 2019).
# pEC50, pIC50: −log10 of the molar value.
# Assays:
# PARG in HeLa cell line = PARG in HeLa cell line (Homo sapiens (Human), UniProt Q86W56); test: PARG cell assay (nuclear PAR chains after MMS, immunofluorescence); format: cell-based; details: HeLa cells, MMS 50 μg/mL; read-out: PARG Cell IC50 Geomean
# Protocol: This method is based on the detection of endogenous levels of poly (ADP) ribose chains present in the nucleus of HeLa cell line using indirect immunofluorescence. MMS stimulation increases PAR chains for up to 25 mins. After that point, PARG is active and breaks down the PAR chains, until by one hour after stimulation no PAR chains are detectable. Inhibition of PARG maintains PAR chains.
# Briefly, following compound treatment and treatment with the DNA damaging agent methylmethanesulfonate (MMS), the cell monolayer is fixed, then permeabilised and incubated with a mouse monoclonal antibody raised against multimers of poly(ADP) ribose. After an overnight incubation, excess antibody is removed by washing and an Alexafluor 488-linked secondary antibody which recognises the mouse monoclonal is added together with a nuclear stain (Hoechst 33342). Images of the cells are then captured and analysed on a High Content Screening platform and the total intensity of the nuclear fluorescent signal at […] is quantified.
# HeLa cells, seeded in 384-well plates, at 4000/well in 30 μL RPMI 1640 media, supplemented with 10% FBS and 2 mM Glutamax, were incubated overnight at 37° C., 5% CO2.
# The following day, cells were dosed in quadruplicate with compound (10 point dose response) and incubated for 1 h at 37° C., 5% CO2.
# At the end of the 1 h dosing period, MMS was added to duplicates at a final concentration of 50 μg/mL, for a further hour.
# Media was tipped off and the cells fixed with 50 μL ice-cold 95% MetOH/PBS for 15 mins at −20° C. Following a PBS wash, 50 μL PBS/0.1% Triton was added to the cells for 20 mins. Following another PBS wash, anti-PAR antibody (Calbiochem AM80) was diluted 1:4000 in a buffer (PBS+0.5% FBS+0.05% Tween20) and added to the cells and incubated overnight at 4° C.
# The following day, cells were washed three times with PBS and then incubated for 1 hr with secondary antibody (Alexa Fluor® 488 goat anti mouse IgG (H+L)) diluted 1:1000 and Hoechst diluted 1:5000 in buffer (5% FBS in PBS+0.05% Tween20).
# Cells were washed three times with PBS and the plate sealed with a light-proof seal.
# Images of the cells were captured on a ThermoFisher Celllnsight and the mean total intensity of spots fluorescent at 485 nm in the nucleus was reported.
# Human Full Length PARG = Human Full Length PARG (Homo sapiens (Human), UniProt Q86W56); test: PARG in vitro enzyme assay (TR-FRET); format: biochemical; details: read-out: PARG_EC50_ENZYME
# Summary of the method: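 Full-length human PARG ([…]) incubated with ribosylated PARP substrate (4.5 nM) for 10 min at room temperature in Tris pH 7.4 buffer with EDTA, EGTA, DTT, KCl. Detection by TR-FRET using anti-6HIS XL665 (14 nM final) and streptavidin europium cryptate (0.75 nM final) after 60 min; Em665/Em620 ratio converted to percent inhibition.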
# Chain of Human Full Length PARG (Q86W56 whole entry): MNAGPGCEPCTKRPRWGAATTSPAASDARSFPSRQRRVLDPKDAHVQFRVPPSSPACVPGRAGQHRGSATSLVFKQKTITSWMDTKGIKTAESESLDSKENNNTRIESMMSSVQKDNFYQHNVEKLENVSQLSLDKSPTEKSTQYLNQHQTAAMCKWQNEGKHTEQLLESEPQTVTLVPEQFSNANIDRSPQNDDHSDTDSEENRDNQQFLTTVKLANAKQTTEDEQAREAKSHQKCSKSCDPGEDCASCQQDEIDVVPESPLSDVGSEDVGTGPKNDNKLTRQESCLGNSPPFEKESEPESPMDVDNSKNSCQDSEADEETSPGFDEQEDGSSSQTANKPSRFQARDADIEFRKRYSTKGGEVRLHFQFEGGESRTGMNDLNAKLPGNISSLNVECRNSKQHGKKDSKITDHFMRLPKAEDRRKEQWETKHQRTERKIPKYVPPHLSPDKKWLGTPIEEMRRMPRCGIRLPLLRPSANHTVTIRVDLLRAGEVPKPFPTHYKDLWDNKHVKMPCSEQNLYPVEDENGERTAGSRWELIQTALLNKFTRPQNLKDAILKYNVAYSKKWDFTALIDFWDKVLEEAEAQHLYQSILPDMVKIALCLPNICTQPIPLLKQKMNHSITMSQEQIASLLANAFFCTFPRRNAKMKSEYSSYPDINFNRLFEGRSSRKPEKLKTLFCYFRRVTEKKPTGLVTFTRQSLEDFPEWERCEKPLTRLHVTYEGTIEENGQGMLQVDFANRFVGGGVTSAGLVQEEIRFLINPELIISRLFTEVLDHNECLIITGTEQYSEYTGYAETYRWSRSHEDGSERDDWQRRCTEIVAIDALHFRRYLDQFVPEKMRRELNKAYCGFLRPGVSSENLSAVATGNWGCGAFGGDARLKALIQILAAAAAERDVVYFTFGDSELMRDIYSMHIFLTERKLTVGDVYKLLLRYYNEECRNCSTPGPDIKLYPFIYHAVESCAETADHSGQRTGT
# Chain of PARG in HeLa cell line (Q86W56 whole entry): as above
Structure (SMILES),pIC50 (PARG in HeLa cell line),pEC50 (Human Full Length PARG)
"Cn1c(=O)n(-c2nnc(C(F)F)o2)c2cc(S(=O)(=O)NC3(CF)CC3)ccc21 [Example 196, 3-[5-(Difluoromethyl)-1,3,4-oxadiazol-2-yl]-N-[1-(fluoromethyl)cyclopropyl]-1-methyl-2-oxo-benzimidazole-5-sulfonamide]",6.33,6.10
COc1ccc(Cn2c(=O)n(-c3nnc(C)s3)c3cc(S(=O)(=O)NC4(C)CC4)ccc32)cc1 [Example 86],6.56,6.39
"N#CCn1c(=O)n(-c2nnc(C(F)F)s2)c2cc(S(=O)(=O)NC3(CF)CC3)c(F)cc21 [Example 215, 1-(Cyanomethyl)-3-[5-(difluoromethyl)-1,3,4-thiadiazol-2-yl]-6-fluoro-N-[1-(fluoromethyl)cyclopropyl]-2-oxo-benzimidazole-5-sulfonamide]",7.07,6.77
"COCCn1c(=O)n(-c2ccc(C)nn2)c2cc(S(=O)(=O)NC3(CF)CC3)c(F)cc21 [Example 203, 6-Fluoro-N-[1-(fluoromethyl)cyclopropyl]-1-(2-methoxyethyl)-3-(6-methylpyridazin-3-yl)-2-oxo-benzimidazole-5-sulfonamide]",5.43,5.32
"Cc1nnc(-n2c(=O)n(C)c3cc(F)c(S(=O)(=O)NC4(C)CC4)cc32)o1 [Example 197, 6-Fluoro-1-methyl-N-(1-methylcyclopropyl)-3-(5-methyl-1,3,4-oxadiazol-2-yl)-2-oxo-benzimidazole-5-sulfonamide]",6.27,6.12
"CCn1c(=O)n(-c2nnc(C)o2)c2cc(S(=O)(=O)NC3(C)CC3)ccc21 [Example 190, 1-Ethyl-N-(1-methylcyclopropyl)-3-(5-methyl-1,3,4-oxadiazol-2-yl)-2-oxo-benzimidazole-5-sulfonamide]",6.39,6.03
"CCn1c(=O)n(-c2nnc(C)s2)c2cc(S(=O)(=O)NC3(C#N)CC3)ccc21 [Example 158, N-(1-Cyanocyclopropyl)-1-ethyl-3-(5-methyl-1,3,4-thiadiazol-2-yl)-2-oxo-benzimidazole-5-sulfonamide]",6.31,5.98
Cc1cnc(-n2c(=O)n(Cc3sc(C)nc3C)c3ccc(S(=O)(=O)NC4(C)CC4)cc32)s1 [Example 107],6.80,7.07
Cc1nc(C)c(Cn2c(=O)n(-c3nc(Br)ns3)c3cc(S(=O)(=O)NC4(C)CC4)ccc32)s1 [Example 108],7.17,7.16
Cc1nnc(-n2c(=O)n(Cc3ncco3)c3ccc(S(=O)(=O)NC4(C)CC4)cc32)s1 [Example 101],6.41,6.61
"COCCn1c(=O)n(-c2nnc(C(F)F)s2)c2cc(S(=O)(=O)NC3(C)CC3)c(F)cc21 [Example 168, 3-[5-(Difluoromethyl)-1,3,4-thiadiazol-2-yl]-6-fluoro-1-(2-methoxyethyl)-N-(1-methylcyclopropyl)-2-oxo-benzimidazole-5-sulfonamide]",7.49,7.00
"COCCn1c(=O)n(-c2nnc(C)s2)c2cc(S(=O)(=O)NC3(CF)CC3)ccc21 [Example 160, N-[1-(Fluoromethyl)cyclopropyl]-1-(2-methoxyethyl)-3-(5-methyl-1,3,4-thiadiazol-2-yl)-2-oxo-benzimidazole-5-sulfonamide]",6.34,6.21
"Cc1nnc(-n2c(=O)[nH]c3cc(F)c(S(=O)(=O)NC4(C)CC4)cc32)o1 [Example 192, 6-Fluoro-N-(1-methylcyclopropyl)-3-(5-methyl-1,3,4-oxadiazol-2-yl)-2-oxo-1H-benzimidazole-5-sulfonamide]",4.93,5.84
"COCCCn1c(=O)n(-c2nc(C)ns2)c2cc(S(=O)(=O)NC3(CF)CC3)ccc21 [Example 185, N-[1-(Fluoromethyl)cyclopropyl]-1-(3-methoxypropyl)-3-(3-methyl-1,2,4-thiadiazol-5-yl)-2-oxo-benzimidazole-5-sulfonamide]",6.13,5.42
